Patent publication US9216977B2 (The University of North Carolina at Chapel Hill, priority 2009, dated 2015)
Like-named read-outs stand apart in the source and are kept apart here.

How the values were obtained:
KBvin = experiment: in vitro screen against KBvin cell line, GI50; format: cell-based; conditions: Homo sapiens
A549 = experiment: in vitro screen against human tumor cell line A549 (lung), GI50; format: cell-based
DU145 = experiment: in vitro screen against human tumor cell line DU-145 (prostate), GI50; format: cell-based
KB = experiment: in vitro screen against human tumor cell line KB (nasopharyngeal), GI50; format: cell-based; conditions: for GI50: read-out: GI50 KB
HCT-8 = experiment: in vitro screen against human tumor cell line HCT-8 (colon), GI50; format: cell-based
[1] = tested on: panel of cancer cell lines including A549 (lung), DU-145 (prostate), KB (nasopharyngeal), and HCT-8 (colon); experiment: cells; conditions: Homo sapiens
[2] = tested on: panel of cancer cell lines including A549 (lung), DU-145 (prostate), KB (nasopharyngeal), and HCT-8 (colon)
SKBR = experiment: in vitro screen against cancer cell line SKBR (breast), GI50; format: cell-based; conditions: Example 3, Table 1
rats = conditions: rat, in vivo; cited from earlier work
[3] = Table 3, cells marked (KBvin) in the HCT-8 column
[4] = Homo sapiens, A549, Example 2, Table 3, 13-aza-cryptopleurines, read-out: GI50 A549
[5] = Homo sapiens, DU-145, Example 2, Table 3, 13-aza-cryptopleurines, read-out: GI50 DU145
[6] = Homo sapiens, KB, Example 2, Table 3, 13-aza-cryptopleurines
[7] = Example 2, Table 4, 12-aza-cryptopleurines, read-out: GI50 A549
[8] = Example 2, Table 4, 12-aza-cryptopleurines
[9] = Homo sapiens, A549, Example 3, Table 1, read-out: GI50 A549
[10] = Homo sapiens, DU-145, Example 3, Table 1, read-out: GI50 DU145
[11] = Homo sapiens, KB, Example 3, Table 1
[12] = Homo sapiens, A549, Example 2, Table 4, 12-aza-cryptopleurines, read-out: GI50 A549
[13] = Homo sapiens, HCT-8, Example 2, Table 4, 12-aza-cryptopleurines, read-out: GI50 HCT-8
[14] = Homo sapiens, DU-145, Example 2, Table 4, 12-aza-cryptopleurines, read-out: GI50 DU145
[15] = Homo sapiens, KB, Example 2, Table 4, 12-aza-cryptopleurines

COc1ccc2c3c(c4cc(OC)c(OC)cc4c2c1)CC1CN(Cc2ccccc2)CN1C3 (stereo in doubt) [Compound 3j, (R)-12-aza-12N-benzyl-antofine]
GI50 (KBvin; Table 2, cells marked (KBvin) in the HCT-8 column): 1870 nM
GI50 (A549; Homo sapiens, A549, Example 2, Table 2, 12-aza-antofines, read-out: GI50 A549): 2680 nM
melting point: 95 to 97 °C
GI50 (DU145; Homo sapiens, DU-145, Example 2, Table 2, 12-aza-antofines, read-out: GI50 DU145): 4620 nM
GI50 (KB; Homo sapiens, KB, Example 2, Table 2, 12-aza-antofines): 3410 nM

COc1ccc2c3c(c4cc(OC)c(OC)cc4c2c1)CC1CN(CC(C)C)CCN1C3 (stereo in doubt) [Compound 8m, (R)-13-aza-13N-isobutyl-cryptopleurine]
GI50 (KBvin; [3]): 9960 nM
GI50 (A549; [4]): 12900 nM
melting point: 175 to 177 °C
GI50 (DU145; [5]): 12200 nM
GI50 (KB; [6]): 11200 nM

COc1ccc2c3c(c4cc(OC)c(OC)cc4c2c1)CC1CN(Cc2ccccc2)CCN1C3 (stereo in doubt) [Compound 8n, (R)-13-aza-13N-benzyl-cryptopleurine]
GI50 (KBvin; [3]): 7640 nM
GI50 (A549; [4]): 16400 nM
melting point: 86 to 88 °C
GI50 (DU145; [5]): 11900 nM
GI50 (KB; [6]): 12100 nM

COc1ccc2c3c(c4cc(OC)c(OC)cc4c2c1)CC1CCN(CC(C)C)CN1C3 (stereo in doubt) [Compound 11g, (R)-12-aza-12N-isobutyl-cryptopleurine]
GI50 (KBvin; Table 4, cell marked (KBvin) in the HCT-8 column): 7320 nM
GI50 (A549; [7]): 5110 nM
melting point: 175 to 177 °C
GI50 (DU145; Example 2, Table 4, 12-aza-cryptopleurines, read-out: GI50 DU145): 1660 nM
GI50 (KB; [8]): 1450 nM

COc1ccc2c3c(c4cc(OC)c(OC)cc4c2c1)C[C@H]1CN(C)CN1C3 [Compound 3h, (S)-12-aza-12N-methyl-antofine]
GI50 (A549; Example 2, Table 2, 12-aza-antofines, read-out: GI50 A549): 660 nM
GI50 (HCT-8; Example 2, Table 2, 12-aza-antofines, read-out: GI50 HCT-8): 1000 nM
GI50 ([1]; read-out: range of activities (GI50) over the cell line panel): 660 to 2030 nM
melting point: 182 to 184 °C
GI50 (DU145; Example 2, Table 2, 12-aza-antofines, read-out: GI50 DU145): 2030 nM
GI50 (KB; Example 2, Table 2, 12-aza-antofines): 1720 nM

COc1ccc2c3c(c4cc(OC)c(OC)cc4c2c1)C[C@H]1CC(=O)CN1C3 [Compound 8, (S)-12-oxo-antofine]
GI50 (KBvin; KBVIN, Example 3, Table 1): 430 nM
GI50 (A549; [9]): 290 nM
GI50 (DU145; [10]): 710 nM
GI50 (KB; [11]): 500 nM
range of cytotoxicity / anticancer activity in words [2]: middle nM to low μM range

COc1ccc2c3c(c4cc(OC)c(OC)cc4c2c1)C[C@H]1C[C@@H](O)CN1C3 [Compound 9a, (12R,13aS)-12-hydroxyl-antofine]
GI50 (KBvin; KBVIN, Example 3, Table 1): 640 nM
GI50 (A549; [9]): 610 nM
GI50 (DU145; [10]): 700 nM
GI50 (KB; [11]): 780 nM
range of cytotoxicity / anticancer activity in words [2]: middle nM to low μM range
activity of 12R isomer compared with 12S isomer (9b) ([2]; Example 3): 3 fold

COc1ccc2c3c(c4cc(OC)c(OC)cc4c2c1)C[C@H]1C[C@H](O)CN1C3 [Compound 9b, (12S,13aS)-12-hydroxyl-antofine]
GI50 (KBvin; KBVIN, Example 3, Table 1): 2210 nM
GI50 (A549; [9]): 2270 nM
GI50 (DU145; [10]): 1800 nM
GI50 (KB; [11]): 1810 nM
range of cytotoxicity / anticancer activity in words [2]: middle nM to low μM range

COc1ccc2c3c(c4cc(OC)c(OC)cc4c2c1)C[C@H]1CCN(CCO)CN1C3 [Compound 11a, (S)-12-aza-12N-hydroxylethyl-cryptopleurine]
GI50 (A549; [12]): 5680 nM
GI50 (HCT-8; [13]): 10600 nM
melting point: 138 to 140 °C
GI50 (DU145; [14]): 1990 nM
GI50 (KB; [15]): 1590 nM

COc1ccc2c3c(c4cc(OC)c(OC)cc4c2c1)C[C@H]1CCN(CC(C)C)CN1C3 [Compound 11c, (S)-12-aza-12N-isobutyl-cryptopleurine]
GI50 (A549; [7]): 1520 nM
GI50 (HCT-8; [13]): 1360 nM
melting point: 177 to 179 °C
GI50 (DU145; [14]): 2300 nM
GI50 (KB; [8]): 5060 nM

COc1ccc2c3c(c4cc(OC)c(OC)cc4c2c1)C[C@H]1CCN(Cc2ccccc2)CN1C3 [Compound 11d, (S)-12-aza-12N-benzyl-cryptopleurine]
GI50 (A549; [12]): 29900 nM
GI50 (HCT-8; [13]): 21300 nM
melting point: 211 to 213 °C
GI50 (DU145; [14]): > 40000 nM
GI50 (KB; [15]): > 40000 nM

COc1ccc2c3c(c4cc(OC)c(OC)cc4c2c1)C[C@H]1CCOCN1C3 [Compound 13, (S)-12-oxa-cryptopleurine]
GI50 (A549; Homo sapiens, A549, Example 2, Table 5, read-out: GI50 A549): 1790 nM
GI50 (HCT-8; Homo sapiens, HCT-8, Example 2, Table 5, read-out: GI50 HCT-8): 1450 nM
GI50 ([1]; read-out: average GI50): 1000 to 2000 nM
GI50 (DU145; Homo sapiens, DU-145, Example 2, Table 5, read-out: GI50 DU145): 1820 nM
GI50 (KB; Homo sapiens, KB, Example 2, Table 5): 1660 nM

COc1ccc2c3c(c4cc(OC)c(OC)cc4c2c1)C[C@H]1C[C@@H](O)CCN1C3 [Compound 13a, (13S,14aS)-13-hydroxyl-eryptopleurine]
GI50 (KBvin; KBVIN, Example 3, Table 1): 78 nM
GI50 (SKBR): 295 nM
GI50 (A549; [9]): 72 nM
GI50 (DU145; [10]): 59 nM
GI50 (KB; [11]): 43 nM
range of cytotoxicity / anticancer activity in words [2]: low nM range

COc1ccc2c3c(c4cc(OC)c(OC)cc4c2c1)C[C@H]1C[C@H](O)CCN1C3 [Compound 13b, (13R,14aS)-13-hydroxyl-cryptopleurine]
GI50 (KBvin; KBVIN, Example 3, Table 1): 25 nM
GI50 (SKBR): 72 nM
GI50 (A549; [9]): 22 nM
GI50 (DU145; [10]): 11 nM
GI50 (KB; [11]): 23 nM
range of cytotoxicity / anticancer activity in words [2]: low nM range

COc1ccc2c3c(c4cc(OC)c(OC)cc4c2c1)C[C@H]1CCC(=O)CN1C3 [Compound 18, (R)-12-oxo-cryptopleurine]
GI50 (KBvin; KBVIN, Example 3, Table 1): 1480 nM
GI50 (SKBR): 3340 nM
GI50 (A549; [9]): 910 nM
GI50 (DU145; [10]): 1700 nM
GI50 (KB; [11]): 734 nM

COc1ccc2c3c(c4cc(OC)c(OC)cc4c2c1)C[C@H]1CC[C@@H](O)CN1C3 [Compound 19a, (12R,14aR)-12-hydroxyl-cryptopleurine]
GI50 (KBvin; KBVIN, Example 3, Table 1): 45 nM
GI50 (SKBR): 348 nM
GI50 (A549; [9]): 82 nM
GI50 (DU145; [10]): 66 nM
GI50 (KB; [11]): 33 nM
range of cytotoxicity / anticancer activity in words [2]: lower nM range

COc1ccc2c3c(c4cc(OC)c(OC)cc4c2c1)C[C@H]1CC[C@H](O)CN1C3 [Compound 19b, (12S,14aR)-12-hydroxyl-cryptopleurine]
GI50 (KBvin; KBVIN, Example 3, Table 1): 3070 nM
GI50 (SKBR): 6440 nM
GI50 (A549; [9]): 2510 nM
GI50 (DU145; [10]): 2250 nM
GI50 (KB; [11]): 2250 nM
range of cytotoxicity / anticancer activity in words [2]: low μM range

COc1ccc2c3c(c4cc(OC)c(OC)cc4c2c1)C[C@H]1CCCCN1C3 [R-cryptopleurine, reference compound]
GI50 (A549; read-out: A549 GI50): 1.38 nM
GI50 (A549; read-out: GI50 A549): 1.38 nM
GI50 (HCT-8; read-out: GI50 HCT-8): 1.09 nM
GI50 (HCT-8; read-out: HCT-8 GI50): 1.09 nM
GI50 (DU145; read-out: DU145 GI50): 1.59 nM
GI50 (DU145; read-out: GI50 DU145): 1.59 nM
toxicity in animal tests (rats): quite toxic
KB GI50 (KB): 1.51 nM
GI50 (KB): 1.51 nM

COc1cc2c3c(c4cc(OC)c(OC)cc4c2cc1OC)CN1CCC[C@@H]1C3 [tylophorine]
generally non-toxic dose (rats): up to 500 mg/kg
